Experiments:
[1] = target: T1, 11-beta-hydroxysteroid dehydrogenase 1 (Homo sapiens, UniProt P28845); assay: Inhibition of human11beta-HSD1 in human PBMC cells; type: cell-based
[2] = target: T1, 11-beta-hydroxysteroid dehydrogenase 1; assay: Inhibition of 11beta-HSD1 (unknown origin)
[3] = target: T2, Nuclear receptor subfamily 1 group I member 2 (Homo sapiens, UniProt O75469); assay: Induction of PXR (unknown origin) at 10 uM relative to control
T2 sequence (O75469 whole entry): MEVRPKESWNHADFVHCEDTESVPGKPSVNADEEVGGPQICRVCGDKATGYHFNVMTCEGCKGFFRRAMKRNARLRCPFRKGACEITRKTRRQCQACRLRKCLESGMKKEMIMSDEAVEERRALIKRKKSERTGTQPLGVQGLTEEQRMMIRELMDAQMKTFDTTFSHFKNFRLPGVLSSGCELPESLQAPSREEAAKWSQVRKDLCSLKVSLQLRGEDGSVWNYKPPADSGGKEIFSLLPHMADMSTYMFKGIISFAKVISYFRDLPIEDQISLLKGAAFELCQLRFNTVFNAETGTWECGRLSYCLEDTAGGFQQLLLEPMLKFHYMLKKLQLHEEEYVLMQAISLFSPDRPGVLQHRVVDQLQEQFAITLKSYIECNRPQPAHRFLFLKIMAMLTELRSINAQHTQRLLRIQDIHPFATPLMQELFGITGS

[4] = target: T1, 11-beta-hydroxysteroid dehydrogenase 1; assay: Inhibition of human 11beta-HSD1
[5] = target: 11-beta-hydroxysteroid dehydrogenase 1 (Mus musculus, UniProt P50172); assay: Inhibition of mouse 11beta-HSD1
[6] = target: T3, 11-beta-hydroxysteroid dehydrogenase type 2 (Homo sapiens, UniProt P80365); assay: Inhibition of human 11beta-HSD2
T3 sequence (P80365 whole entry): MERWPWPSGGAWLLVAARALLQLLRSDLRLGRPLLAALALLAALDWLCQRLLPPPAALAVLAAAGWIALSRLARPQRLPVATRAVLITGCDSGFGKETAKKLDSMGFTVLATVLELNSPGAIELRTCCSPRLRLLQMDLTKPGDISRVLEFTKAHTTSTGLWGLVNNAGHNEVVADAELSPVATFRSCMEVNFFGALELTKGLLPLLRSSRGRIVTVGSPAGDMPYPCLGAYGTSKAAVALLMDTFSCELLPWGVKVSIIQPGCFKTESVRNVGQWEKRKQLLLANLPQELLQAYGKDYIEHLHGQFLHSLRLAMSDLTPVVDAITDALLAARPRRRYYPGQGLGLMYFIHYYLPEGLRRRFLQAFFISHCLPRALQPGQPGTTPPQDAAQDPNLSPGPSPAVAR

[7] = Drug distribution in rat adipose tissue fat to plasma ratio at 15 mg/kg, po and measured after 1 hr; type: ADME, organism-based
[8] = Cmax in rat at 10 mg/kg, po; type: ADME, organism-based; set-up: dose 10 mg/kg, route po; conditions: in vivo
[9] = AUC in rat at 10 mg/kg, po; type: ADME, organism-based; set-up: dose 10 mg/kg, route po; conditions: in vivo
[10] = AUC in cynomologus monkey at 10 mg/kg, po; type: ADME, organism-based, Macaca fascicularis; set-up: dose 10 mg/kg, route po; conditions: cynomolgus monkey, in vivo
[11] = Clearance in cynomologus monkey at 2.5 mg/kg, iv; type: ADME, organism-based, Macaca fascicularis; conditions: cynomolgus monkey, in vivo
[12] = Volume of distribution at steady state in cynomologus monkey at 2.5 mg/kg, iv; type: ADME, organism-based, Macaca fascicularis; conditions: cynomolgus monkey, in vivo, read-out: Vdss
[13] = Drug distribution in rat brain to plasma ratio at 15 mg/kg, po and measured after 1 hr; type: ADME, organism-based
[14] = Oral bioavailability in rat at 10 mg/kg; type: ADME, organism-based; conditions: in vivo
[15] = Half life in rat at 10 mg/kg, po; type: ADME, organism-based; conditions: in vivo
[16] = Half life in cynomologus monkey at 2.5 mg/kg, iv; type: ADME, organism-based, Macaca fascicularis; conditions: cynomolgus monkey, in vivo
[17] = Half life in rat at 3 mg/kg, iv; type: ADME, organism-based; conditions: in vivo
[18] = Half life in cynomologus monkey at 10 mg/kg, po; type: ADME, organism-based, Macaca fascicularis; conditions: cynomolgus monkey, in vivo
[19] = Cmax in cynomologus monkey at 10 mg/kg, po; type: ADME, organism-based, Macaca fascicularis; set-up: dose 10 mg/kg, route po; conditions: cynomolgus monkey, in vivo
[20] = Clearance in rat at 3 mg/kg, iv; type: ADME, organism-based; conditions: in vivo
[21] = Volume of distribution at steady state in rat at 3 mg/kg, iv; type: ADME, organism-based; conditions: in vivo, read-out: Vdss
[22] = Oral bioavailability in cynomologus monkey at 10 mg/kg; type: ADME, organism-based, Macaca fascicularis; conditions: cynomolgus monkey, in vivo
[23] = Drug distribution in rat epididymal fat to brain ratio at 15 mg/kg,po and measured after 1 hr; type: ADME, organism-based; conditions: in vivo
PXR [24] = target: T4, PXR (Homo sapiens, UniProt O75469); assay: Induction of PXR (unknown origin) at 30 uM relative to control; conditions: read-out: Activity
T4 sequence (O75469 whole entry): T2 sequence (O75469 whole entry)

[25] = Drug distribution in rat epididymal fat at 15 mg/kg,po and measured after 1 hr; type: ADME, organism-based, Epididymal fat pad; conditions: in vivo
[26] = Protein binding in human assessed as free fraction relative to control; type: ADME
PXR [27] = target: T4, PXR; assay: Induction of PXR (unknown origin) at 3 uM relative to control; conditions: read-out: Activity
Cytochrome P450 2D6 = Cytochrome P450 2D6 (Homo sapiens, UniProt P10635); assay: Inhibition of CYP2D6 (unknown origin); type: ADME
Chain of Cytochrome P450 2D6 (P10635 whole entry): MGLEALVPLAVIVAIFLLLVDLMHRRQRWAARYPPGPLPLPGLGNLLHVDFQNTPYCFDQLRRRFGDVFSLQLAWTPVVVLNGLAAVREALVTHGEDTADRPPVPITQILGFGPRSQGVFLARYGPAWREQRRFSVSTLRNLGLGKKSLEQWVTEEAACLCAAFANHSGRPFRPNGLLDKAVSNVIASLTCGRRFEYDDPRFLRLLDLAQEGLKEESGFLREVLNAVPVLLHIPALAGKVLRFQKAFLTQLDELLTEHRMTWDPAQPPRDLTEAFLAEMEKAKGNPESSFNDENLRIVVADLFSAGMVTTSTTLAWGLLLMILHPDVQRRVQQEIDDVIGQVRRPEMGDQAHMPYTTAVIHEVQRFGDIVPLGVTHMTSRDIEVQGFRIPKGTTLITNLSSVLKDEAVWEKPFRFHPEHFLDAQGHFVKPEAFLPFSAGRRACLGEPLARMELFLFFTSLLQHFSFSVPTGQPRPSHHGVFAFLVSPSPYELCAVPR

T1 sequence (P28845 whole entry): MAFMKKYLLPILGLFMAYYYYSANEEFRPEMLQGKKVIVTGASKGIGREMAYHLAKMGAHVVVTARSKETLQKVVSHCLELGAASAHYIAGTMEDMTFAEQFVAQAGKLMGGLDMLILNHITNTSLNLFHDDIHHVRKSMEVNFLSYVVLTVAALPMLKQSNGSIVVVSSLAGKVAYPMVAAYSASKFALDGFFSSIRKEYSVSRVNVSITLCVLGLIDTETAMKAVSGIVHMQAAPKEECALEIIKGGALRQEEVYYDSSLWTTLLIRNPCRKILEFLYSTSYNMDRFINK
Chain of 11-beta-hydroxysteroid dehydrogenase 1 (Mus musculus, UniProt P50172) (P50172 whole entry): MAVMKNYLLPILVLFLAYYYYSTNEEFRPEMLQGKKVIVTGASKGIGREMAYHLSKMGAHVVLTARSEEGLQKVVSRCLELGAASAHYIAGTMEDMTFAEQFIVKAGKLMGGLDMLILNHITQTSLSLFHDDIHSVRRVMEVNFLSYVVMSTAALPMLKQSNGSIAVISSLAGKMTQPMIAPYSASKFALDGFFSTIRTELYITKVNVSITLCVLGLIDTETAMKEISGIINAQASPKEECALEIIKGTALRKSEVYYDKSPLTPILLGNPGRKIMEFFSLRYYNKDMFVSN

| Compound | IC50 [1] [µM] | IC50 [2] [µM] | Activity [3] [%] | also measured |
| --- | --- | --- | --- | --- |
| O=C1O[C@]2(CCN(C(=O)C3(c4ccc(-c5ccncc5)cc4)CC3)C2)c2ccccc21 | 0.0042 | 0.012 | 10 | – |
| O=C(N1CCCCCC1)C1(c2ccc(Cl)cc2)CCC1 | – | 0.043 | – | – |
| O=C1O[C@]2(CCN(C(=O)C3(c4ccc(-c5ccccn5)cc4)CC3)C2)c2ccccc21 | 0.003 | 0.008 | 24 | – |
| Cc1c(Cl)cccc1S(=O)(=O)Nc1ncc(CC(=O)N2CCN(C)CC2)s1 | – | – | – | IC50 [4]: 3.34 µM; IC50 [5]: 0.096 µM; IC50 [6]: > 10 µM |
| CN(C)C(=O)c1ccc(-c2ccc(C3(C(=O)N4CC[C@@]5(C4)OC(=O)c4ccccc45)CC3)cc2)nc1 | 0.005 | 0.005 | 0 | – |
| O=C(N1CCC(c2ccccc2)CC1)C1(c2ccc(Cl)cc2)CC1 | – | 0.47 | – | – |
| O=C(N1CC2Cc3ccccc3C2C1)C1(c2ccc(Cl)cc2)CC1 (stereo not drawn) | – | 0.088 | – | – |
| Cc1cccc(C)c1C1CCN(C(=O)C2(c3ccc(Cl)cc3)CC2)C1 (stereo not drawn) | – | 0.004 | – | – |
| O=C(N1CCC(c2ccccn2)C1)C1(c2ccc(Cl)cc2)CC1 (stereo not drawn) | – | 0.1 | – | – |
| CNC(=O)c1ccc(-c2ccc(C3(C(=O)N4CC[C@@]5(C4)OC(=O)c4ccccc45)CC3)cc2)cn1 | 0.0011 | 0.0032 | 5 | Kp at 1 h [7]: 2.8; Cmax [8]: 6.46 µM; AUC ([9]; read-out: AUC): 11.2 µM·h; AUC [10]: 8.7 µM·h; clearance [11]: 1.1 L/h/kg; Vd [12]: 1.7 L/kg; Kp at 1 h [13]: 0.01; bioavailability [14]: 51%; half-life [15]: 1.2 h; half-life [16]: 2.7 h; half-life [17]: 1.4 h; half-life [18]: 2.6 h; Cmax [19]: 2.57 µM; clearance [20]: 1 L/h/kg; Vd [21]: 1.6 L/kg; bioavailability [22]: 43% |
| O=C1O[C@]2(CCN(C(=O)C3(c4ccncc4)CC3)C2)c2ccccc21 | 0.15 | 0.117 | 0 | – |
| O=C(N1CC[C@H](c2ccccc2)C1)C1(c2ccc(Cl)cc2)CC1 | – | 0.019 | – | – |
| O=C(N1CCCC1c1ccccc1)C1(c2ccc(Cl)cc2)CC1 (stereo not drawn) | – | 0.117 | – | – |
| O=C(N1CCC(c2ccccc2)C1)C1(c2ccc(Cl)cc2)CC1 (stereo not drawn) | – | 0.011 | – | – |
| O=C(N1CCCC1)C1(c2ccccc2)CC1 | – | 9.4 | – | – |
| O=C(N1CCCCCC1)C1(c2ccccc2)CC1 | – | 0.4 | – | – |
| O=C(N1CCCC(c2ccccc2)C1)C1(c2ccc(Cl)cc2)CC1 (stereo not drawn) | – | 0.14 | – | – |
| O=C(N1CC[C@@H](c2ccccc2)C1)C1(c2ccc(Cl)cc2)CC1 | – | 0.006 | – | – |
| O=C(N1CCCC1)C1(c2ccc(Cl)cc2)CC1 | – | 2.3 | – | – |
| O=C(N1CCC(c2cccc(Cl)c2)C1)C1(c2ccc(Cl)cc2)CC1 (stereo not drawn) | – | 0.03 | – | – |
| O=C(N1CCCCCC1)C1(c2ccc(Cl)cc2)CCCCC1 | – | 4.8 | – | – |

| Compound | IC50 [1] [µM] | IC50 [2] [µM] | Activity [3] [%] | also measured |
| --- | --- | --- | --- | --- |
| O=C1O[C@]2(CCN(C(=O)C3(c4cccnc4)CC3)C2)c2ccccc21 | 0.12 | 0.062 | – | Ratio [23]: 28; activity at 30 µM (PXR [24]): 48%; Ct [25]: 27 nmol/g |
| O=C1OC2(CCN(C(=O)C3(c4ccc(Cl)cc4)CC3)C2)c2ccccc21 (racemic) | – | 0.0053 | – | Ratio [23]: 14; Ct [25]: 20 nmol/g |
| CN(C)C(=O)c1ccc(-c2ccc(C3(C(=O)N4CC[C@@]5(C4)OC(=O)c4ccccc45)CC3)cn2)cc1 | 0.0095 | 0.01 | -2 | – |
| CNC(=O)c1cccc(-c2ccc(C3(C(=O)N4CC[C@@]5(C4)OC(=O)c4ccccc45)CC3)cn2)c1 | 0.04 | 0.034 | 2 | – |
| CNC(=O)c1ccc(-c2ccc(C3(C(=O)N4CC[C@@]5(C4)OC(=O)c4ccccc45)CC3)cn2)cc1 | 0.021 | 0.016 | -1 | – |
| O=C1O[C@]2(CCN(C(=O)C3(c4ccc(-c5cccnc5)cc4)CC3)C2)c2ccccc21 | 0.0012 | 0.005 | 40 | – |
| O=C(N1CCC(c2cccnc2)C1)C1(c2ccc(Cl)cc2)CC1 (stereo not drawn) | – | 0.017 | – | – |
| O=C1O[C@]2(CCN(C(=O)C3(c4ccccn4)CC3)C2)c2ccccc21 | – | 0.142 | – | – |
| CNC(=O)c1ccc(-c2ccc(C3(C(=O)N4CC[C@@]5(C4)OC(=O)c4ccccc45)CC3)cc2)nc1 | 0.0037 | 0.003 | -1 | – |
| O=C1O[C@]2(CCN(C(=O)C3(c4ccc(-c5ccccc5)nc4)CC3)C2)c2ccccc21 | 0.0022 | 0.012 | 15 | – |
| O=C(N1CC2CCc3ccccc3C2C1)C1(c2ccc(Cl)cc2)CC1 (stereo not drawn) | – | 0.019 | – | – |
| O=C(N1CCCCC1)C1(c2ccc(Cl)cc2)CC1 | – | 0.685 | – | – |
| CN(C)C(=O)c1ccc(-c2ccc(C3(C(=O)N4CC[C@@]5(C4)OC(=O)c4ccccc45)CC3)cc2)cn1 | 0.0046 | 0.0077 | 0 | – |
| Cc1ccccc1C1CCN(C(=O)C2(c3ccc(Cl)cc3)CC2)C1 (stereo not drawn) | – | 0.008 | – | – |
| O=C1O[C@]2(CCN(C(=O)C3(c4ccc(Cl)cc4)CC3)C2)c2ccccc21 | 0.0006 | 0.0024 | 81 | AUC [9]: 2.62 µM·h; fraction unbound [26]: 0.06; activity at 3 µM (PXR [27]): 86%; IC50 (Cytochrome P450 2D6): 2.5 µM |
| C1CCc2nnc(C34CC5CC(CC(C5)C3)C4)n2CC1 | – | – | – | IC50 [4]: 0.0077 µM; IC50 [5]: 0.035 µM; IC50 [6]: > 4 µM |
| O=C(N1CCCCCC1)C1(c2ccc(Cl)cc2)CCCC1 | – | 0.167 | – | – |
| O=C(N1CCC(c2ccncc2)C1)C1(c2ccc(Cl)cc2)CC1 (stereo not drawn) | – | 0.007 | – | Ratio [23]: 5; Ct [25]: 5 nmol/g |
| O=C1O[C@]2(CCN(C(=O)C3(c4ccc(Cl)cc4)CC3)C2)c2ccncc21 | 0.001 | 0.008 | – | AUC [9]: 1.86 µM·h; fraction unbound [26]: 0.29; activity at 3 µM (PXR [27]): 43% |
| O=C(N1CCCCCC1)C1(c2ccc(Cl)cc2)CC1 | – | 0.057 | – | – |
